Patent publication US4448962A, “Substituted quinoline carboxylic acid derivatives” (Kyorin Seiyaku Kabushiki Kaisha, priority 1978, dated 1984)
Values after ≈ are worked out from the molar mass of the structure shown. Structures can show the parent of a compound that is named as a salt. Where two headings read alike, the source gives them in different places.

Legend:
Assay in all cases: Antibacterial spectrum (Minimum Inhibitory Concentration)
Format in all cases: cell-based
Ser. marcescens IID 619 = details: Serratia marcescens
Text: (§1) The antibacterial tests were done according to the method authorized by the Chemotherapeutic Society of Japan.

Shigella sonnei IID 969 = details: IID969; Shigella sonnei IID 969, Gram -
Text: as §1

[1] = tested on: Salmonella enteritidies IID 604
Text: as §1

[2] = tested on: Staphylococcus aureus 209P; details: read-out: Minimum Inhibitory Concentration
Text: as §1

E. coli ATCC 10536 = details: Escherichia coli
Text: as §1

Ps. aeruginosa IID 1210 = details: Pseudomonas aeruginosa
Text: as §1

[3] = tested on: Serratia marcescens IID 618
Text: as §1

[4] = tested on: Bacillus subtilis PCI 219
Text: as §1

Ser. marcescens IID 620 = details: Serratia marcescens
Text: as §1

[5] = tested on: Escherichia coli NIHJ JC-2
Text: as §1

[6] = tested on: Pseudomonas aeruginosa V-1
Text: as §1

[7] = tested on: Klebsiella pneumoniae IFO 3512
Text: as §1

Ps. aeruginosa IFO 12689 = details: Pseudomonas aeruginosa
Text: as §1

[8] = tested on: Proteus vulgaris IFO 3167
Text: as §1

Pr. vulgaris XK Denken = details: Proteus vulgaris, read-out: Minimum Inhibitory Concentration
Text: as §1

Sta. aureus ATCC 14775 = details: Staphylococcus aureus
Text: as §1

Ps. aeruginosa IID 1130 = details: Pseudomonas aeruginosa
Text: as §1

[9] = tested on: Mycobacterium smegmatis IFO 3083; details: Mycolicibacterium smegmatis
Text: as §1

[10] = Salmonella, IID604, read-out: Minimum Inhibitory Concentration
[11] = ATCC10536, read-out: Minimum Inhibitory Concentration
[12] = IID1210, read-out: Minimum Inhibitory Concentration
[13] = Bacillus subtilis, PCI219, read-out: Minimum Inhibitory Concentration
[14] = Escherichia coli, NIHJJC2, read-out: Minimum Inhibitory Concentration
[15] = Pseudomonas aeruginosa, V1, read-out: Minimum Inhibitory Concentration
[16] = Klebsiella pneumoniae, IFO3512, read-out: Minimum Inhibitory Concentration
[17] = IFO12689, read-out: Minimum Inhibitory Concentration
[18] = Proteus vulgaris, IFO3167, read-out: Minimum Inhibitory Concentration
[19] = ATCC14775, read-out: Minimum Inhibitory Concentration
[20] = IID1130, read-out: Minimum Inhibitory Concentration
[21] = IID619, Ser. marcescens IID 619, Gram -, read-out: Minimum Inhibitory Concentration
[22] = IID604, Salmonella enteritidies IID 604, Gram -, read-out: Minimum Inhibitory Concentration
[23] = Staphylococcus aureus 209P, Gram +
[24] = ATCC10536, E. coli ATCC 10536, Gram -, read-out: Minimum Inhibitory Concentration
[25] = IID1210, Ps. aeruginosa IID 1210, Gram -, read-out: Minimum Inhibitory Concentration
[26] = IID618, Serratia marcescens IID 618, Gram -, read-out: Minimum Inhibitory Concentration
[27] = IID620, Ser. marcescens IID 620, Gram -, read-out: Minimum Inhibitory Concentration
[28] = NIHJJC2, Escherichia coli NIHJ JC-2, Gram -, read-out: Minimum Inhibitory Concentration
[29] = V1, Pseudomonas aeruginosa V-1, Gram -, read-out: Minimum Inhibitory Concentration
[30] = IFO12689, Ps. aeruginosa IFO 12689, Gram -, read-out: Minimum Inhibitory Concentration
[31] = ATCC14775, Sta. aureus ATCC 14775, Gram +, read-out: Minimum Inhibitory Concentration
[32] = IID1130, Ps. aeruginosa IID 1130, Gram -, read-out: Minimum Inhibitory Concentration
[33] = PCI219, Bacillus subtilis PCI 219, Gram +, read-out: Minimum Inhibitory Concentration
[34] = IFO3512, Klebsiella pneumoniae IFO 3512, Gram -, read-out: Minimum Inhibitory Concentration
[35] = IFO3083, Mycobacterium smegmatis IFO 3083, Gram +, read-out: Minimum Inhibitory Concentration
[36] = IFO3167, Proteus vulgaris IFO 3167, Gram -, read-out: Minimum Inhibitory Concentration

Structure (SMILES)	MIC (Shigella sonnei IID 969) [µg/mL]	MIC ([2]; Staphylococcus aureus, 209P) [µg/mL]	MIC (E. coli ATCC 10536; [11]) [µg/mL]	MIC [4, 13] [µg/mL]	MIC [5, 14] [µg/mL]	MIC [7, 16] [µg/mL]	MIC [8, 18] [µg/mL]	MIC [1, 22] [µg/mL]	MIC [2, 23] [µg/mL]	MIC (E. coli ATCC 10536; [24]) [µg/mL]	MIC (Ps. aeruginosa IID 1210; [25]) [µg/mL]	MIC [5, 28] [µg/mL]	MIC [6, 29] [µg/mL]	MIC (Ps. aeruginosa IFO 12689; [30]) [µg/mL]	MIC (Sta. aureus ATCC 14775; [31]) [µg/mL]	MIC (Ps. aeruginosa IID 1130; [32]) [µg/mL]	MIC [4, 33] [µg/mL]	MIC [7, 34] [µg/mL]	MIC [8, 36] [µg/mL]	MIC (Pr. vulgaris XK Denken; Pr. vulgaris XK Denken, Gram -) [µg/mL]	further results
Cl.O=C(O)c1cn(CCF)c2cc(N3CCNCC3)c(F)cc2c1=O [Example 5, 1-(2-fluoroethyl)-6-fluoro-7-(1-piperazinyl)-4-oxo-1,4-dihydroquinoline-3-carboxylic acid hydrochloride]	< 0.1	1.56	0.2	0.2	< 0.1	< 0.1	0.2	–	–	–	–	–	–	–	–	–	–	–	–	–	MIC (Ser. marcescens IID 619; IID619, read-out: Minimum Inhibitory Concentration): 0.39 µg/mL; MIC [1, 10]: 0.78 µg/mL; MIC (Ps. aeruginosa IID 1210; [12]): 3.13 µg/mL; MIC ([3]; Serratia marcescens, IID618, read-out: Minimum Inhibitory Concentration): 0.2 µg/mL; MIC (Ser. marcescens IID 620; IID620, read-out: Minimum Inhibitory Concentration): 0.2 µg/mL; MIC [6, 15]: 0.78 µg/mL; MIC (Ps. aeruginosa IFO 12689; [17]): 3.13 µg/mL; MIC (Pr. vulgaris XK Denken): 0.39 µg/mL; MIC (Sta. aureus ATCC 14775; [19]): 6.25 µg/mL; MIC (Ps. aeruginosa IID 1130; [20]): 1.56 µg/mL
CN1CCN(c2cc3c(cc2F)c(=O)c(C(=O)O)cn3CCF)CC1 [Example 6, 1-(2-fluoroethyl)-6-fluoro-7-(4-methyl-1-piperazinyl)-4-oxo-1,4-dihydroquinoline-3-carboxylic acid]	< 0.1	–	–	< 0.1	–	< 0.1	< 0.1	0.78 (≈ 2.22 µM)	0.39 (≈ 1.11 µM)	0.2 (≈ 0.569 µM)	6.25 (≈ 17.8 µM)	< 0.1	3.13 (≈ 8.91 µM)	3.13 (≈ 8.91 µM)	0.78 (≈ 2.22 µM)	6.25 (≈ 17.8 µM)	–	–	–	–	MIC (Ser. marcescens IID 619; [21]): 0.2 µg/mL (≈ 0.569 µM); MIC [3, 26]: 0.2 µg/mL (≈ 0.569 µM); MIC (Ser. marcescens IID 620; [27]): 0.2 µg/mL (≈ 0.569 µM); MIC (Pr. vulgaris XK Denken): < 0.1 µg/mL
CCOC(=O)CN1CCN(c2cc3c(cc2Cl)c(=O)c(C(=O)O)cn3CC)CC1 [Example 13, 1-ethyl-6-chloro-7-(4-ethoxycarbonylmethyl-1-piperazinyl)-4-oxo-1,4-dihydroquinoline-3-carboxylic acid]	–	–	–	–	–	–	–	–	> 100	100 (≈ 237 µM)	–	100 (≈ 237 µM)	> 100	> 100	–	–	3.13 (≈ 7.42 µM)	6.25 (≈ 14.8 µM)	100 (≈ 237 µM)	50 (≈ 119 µM)	MIC [9, 35]: 25 µg/mL (≈ 59.3 µM)
CCn1cc(C(=O)O)c(=O)c2cc(Cl)c(N3CCN(CC(=O)O)CC3)cc21 [Example 14]	–	50 (≈ 127 µM)	–	–	–	–	–	–	–	12.5 (≈ 31.7 µM)	–	12.5 (≈ 31.7 µM)	> 100	> 100	–	–	50 (≈ 127 µM)	12.5 (≈ 31.7 µM)	25 (≈ 63.5 µM)	12.5 (≈ 31.7 µM)	MIC [9, 35]: > 100 µg/mL
CCn1cc(C(=O)O)c(=O)c2cc(Br)c(N3CCNCC3)cc21 [Example 22, 1-ethyl-6-bromo-dihydro-4-oxo-7-(1-piperazinyl)quinoline-3-carboxylic acid hydrochloride]	0.39	–	–	–	–	–	–	1.56	3.13	0.78	100	0.39	12.5	50	12.5	50	1.56	0.39	0.39	1.56	MIC (Ser. marcescens IID 619; [21]): 3.13 µg/mL; MIC [3, 26]: 0.78 µg/mL; MIC (Ser. marcescens IID 620; [27]): 0.78 µg/mL
CCn1cc(C(=O)O)c(=O)c2cc(Br)c(N3CCN(C)CC3)cc21 [Example 23, 1-ethyl-6-bromo-1,4-dihydro-7-(4-methyl-1-piperazinyl)-4-oxoquinoline-3-carboxylic acid]	0.78 (≈ 1.98 µM)	–	–	–	–	–	–	3.13 (≈ 7.94 µM)	1.56 (≈ 3.96 µM)	0.78 (≈ 1.98 µM)	> 100	0.39 (≈ 0.989 µM)	100 (≈ 254 µM)	> 100	3.13 (≈ 7.94 µM)	> 100	0.78 (≈ 1.98 µM)	0.39 (≈ 0.989 µM)	0.78 (≈ 1.98 µM)	3.13 (≈ 7.94 µM)	MIC (Ser. marcescens IID 619; [21]): 3.13 µg/mL (≈ 7.94 µM); MIC [3, 26]: 0.78 µg/mL (≈ 1.98 µM); MIC (Ser. marcescens IID 620; [27]): 0.78 µg/mL (≈ 1.98 µM)
CCn1cc(C(=O)O)c(=O)c2ccc(C)nc21 [Nalidixic, nalidixic acid, reference compound]	1.56 (≈ 6.72 µM)	100 (≈ 431 µM)	3.13 (≈ 13.5 µM)	6.25 (≈ 26.9 µM)	3.13 (≈ 13.5 µM)	1.56 (≈ 6.72 µM)	3.13 (≈ 13.5 µM)	–	–	–	–	–	–	–	–	–	–	–	–	–	MIC [1, 10]: 12.5 µg/mL (≈ 53.8 µM); MIC (Ps. aeruginosa IID 1210; [12]): > 200 µg/mL; MIC [6, 15]: 100 µg/mL (≈ 431 µM); MIC ([9]; IFO3083, read-out: Minimum Inhibitory Concentration): > 100 µg/mL; MIC (Ps. aeruginosa IFO 12689; [17]): > 200 µg/mL; MIC (Pr. vulgaris XK Denken): 3.13 µg/mL (≈ 13.5 µM); MIC (Sta. aureus ATCC 14775; [19]): > 100 µg/mL; MIC (Ps. aeruginosa IID 1130; [20]): > 200 µg/mL
CCn1cc(C(=O)O)c(=O)c2cnc(N3CCNCC3)nc21 [Pipemidic acid, reference compound]	1.56 (≈ 5.14 µM)	–	1.56 (≈ 5.14 µM)	–	1.56 (≈ 5.14 µM)	1.56 (≈ 5.14 µM)	–	12.5 (≈ 41.2 µM)	25 (≈ 82.4 µM)	–	50 (≈ 165 µM)	–	12.5 (≈ 41.2 µM)	25 (≈ 82.4 µM)	100 (≈ 330 µM)	25 (≈ 82.4 µM)	6.25 (≈ 20.6 µM)	–	3.13 (≈ 10.3 µM)	6.25 (≈ 20.6 µM)	MIC [9, 35]: 50 µg/mL (≈ 165 µM)
